Several values for one entry are separate records, joined by “and”; a condition that tells them apart may be missing. Equal values may be shown once. Read-outs that look alike come from different tables or passages of the source.
Key:
[1] = Plasma and tissue drug levels after IV bolus and CIV infusion, rat C6 orthotopic brain tumors; format: in vivo
Procedure: 14 days post-tumor implantation, rats received a bolus IV administration of compound 1 (30 mg/kg; 1.5 mL at 0.5 mL per min) followed by continuous IV infusion (5 mg/kg/hour; 0.7 mL/hour) over 3 hours. The animals were then sacrificed by anesthetic overdose and blood was collected by heart puncture. Brain, tumor and liver were snap-frozen in liquid nitrogen and stored at −80° C. until analysis. Blood samples was collected into K2-EDTA tubes and kept on ice for a maximum of 30 min. Samples were then centrifuged at 4° C. and 1500 g (RCF). A volume of 225 μL of rat plasma was added to clean tubes containing 25 μL of aqueous 4% w/v L-ascorbic acid and samples were mixed and stored at −80° C. until analysis.
Binding potential (B.P.) data and Compound 1 plasma levels and tissue levels for each of the seven rats included in the study are presented in Table 23 below and summarized in FIG. 7.

[2] = tested on: U 373 astrocytoma cell line; assay: MTT cytotoxicity, U 373 cell line; format: cell-based; conditions: U373 MG, 96 h, Human
Procedure: The cytotoxic activity of Compound 1 was further evaluated using a panel of brain tumor cell lines. This study was performed in collaboration with INSERM (Grenoble, France). Tumor cells (5,000 to 10,000 cells per well depending on their doubling time) were plated in 96-well flat-bottom plates and incubated for 24 hours before treatment. Tumor cells were then incubated for 96 hours with seven different concentrations of Compound 1: […], 0.01, and 0.001 μM. The in vitro cytotoxic activity was determined by a standard MTT assay.

[3] = tested on: 60 different human tumor cell lines; assay: NCI in vitro screening, 60 human tumor cell lines; format: cell-based; conditions: for GI50: Homo sapiens
Source text: A study measuring the in vitro cytotoxic activity of Compound 1 was first performed by the NCI (National Cancer Institute, U.S. National Institutes of Health, Bethesda, Md., USA) against a panel of human cancer cell lines. This screen utilizes 60 different human tumor cell lines, representing cancers of the blood, skin, lung, colon, brain, ovary, breast, prostate, and kidney (More information available at: http://dtp.nci.nih.gov/branches/btb/ivclsp.html.) The compound was sent and tested on three occasions (Mar. 31, 2003; Dec. 1, 2003; Mar. 27, 2007).

human EGFR = biological target: T1, human EGFR (Homo sapiens, UniProt P00533); assay: Upstate Kinase Profiler, EGFR; format: biochemical
T1 construct: purchased Upstate (Kinase Profiler Service; Dundee, UK)
T1 sequence (P00533 25-1210): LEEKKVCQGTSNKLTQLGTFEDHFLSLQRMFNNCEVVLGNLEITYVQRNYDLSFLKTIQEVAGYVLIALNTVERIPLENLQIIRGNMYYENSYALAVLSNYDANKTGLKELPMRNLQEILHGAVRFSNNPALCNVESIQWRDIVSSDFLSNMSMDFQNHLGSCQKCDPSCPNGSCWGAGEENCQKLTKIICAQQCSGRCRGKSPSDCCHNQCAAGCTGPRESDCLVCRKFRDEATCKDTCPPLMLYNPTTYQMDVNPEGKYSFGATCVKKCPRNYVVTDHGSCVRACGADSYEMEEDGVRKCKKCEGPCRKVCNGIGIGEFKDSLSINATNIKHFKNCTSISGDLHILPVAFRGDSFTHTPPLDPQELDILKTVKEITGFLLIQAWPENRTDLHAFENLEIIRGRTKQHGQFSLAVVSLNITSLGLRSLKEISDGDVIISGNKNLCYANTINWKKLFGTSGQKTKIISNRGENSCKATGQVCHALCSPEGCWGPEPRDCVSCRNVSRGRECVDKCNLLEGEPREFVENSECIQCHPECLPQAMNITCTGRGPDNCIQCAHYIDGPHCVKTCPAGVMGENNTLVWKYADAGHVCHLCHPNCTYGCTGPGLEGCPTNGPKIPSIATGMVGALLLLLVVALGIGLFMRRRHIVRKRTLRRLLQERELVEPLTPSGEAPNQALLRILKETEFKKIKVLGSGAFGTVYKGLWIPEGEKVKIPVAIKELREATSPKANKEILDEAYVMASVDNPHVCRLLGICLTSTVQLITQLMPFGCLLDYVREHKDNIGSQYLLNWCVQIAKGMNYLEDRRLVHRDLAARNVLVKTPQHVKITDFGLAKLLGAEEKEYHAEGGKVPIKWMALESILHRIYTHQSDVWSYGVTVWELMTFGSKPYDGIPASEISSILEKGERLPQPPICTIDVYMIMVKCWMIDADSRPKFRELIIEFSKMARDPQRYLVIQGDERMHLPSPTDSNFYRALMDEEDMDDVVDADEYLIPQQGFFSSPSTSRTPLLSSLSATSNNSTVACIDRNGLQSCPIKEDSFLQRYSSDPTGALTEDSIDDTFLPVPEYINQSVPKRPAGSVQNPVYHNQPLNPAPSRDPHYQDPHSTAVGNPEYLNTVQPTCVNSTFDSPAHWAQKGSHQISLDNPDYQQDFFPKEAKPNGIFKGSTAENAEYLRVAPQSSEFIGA
Procedure: Unlike current Ras signalling pathway inhibitors, ECO-4601 is not a direct kinase inhibitor. This was documented by evaluating the effect of ECO-4601 on human EGFR, c-RAF, MEK1, MAPK1 (ERK1) and MAPK2 (ERK2) kinase-activity (Upstate Kinase Profiler™ Service; Dundee, UK). ECO-4601 was tested at 0.5 μM and 5 μM in a final volume of 25 μL according to standard protocols developed by Upstate Ltd. Briefly, purified recombinant human enzymes were incubated with 25 mM Tris pH 7.5 containing EGTA, a specific substrate and γ-^32P-ATP. The reaction was initiated with MgATP mix and incubated for 40 minutes at RT. The reaction was stopped by the addition of 5 μL of a 3% phosphoric acid solution; aliquots were spotted on filters and counted. Detailed procedures are available on the Millipore Upstate website.

[4] = tested on: phosphorylation of Raf-1 and ERK1/2 (Ras-MAPK signaling pathway); assay: Western blot of EGF-induced Raf-1 and ERK1/2 phosphorylation in tumor cells; format: cell-based, human; conditions: 10 μM
Procedure: The effect of ECO-4601 on downstream events of Ras signaling was subsequently examined by monitoring the phosphorylation levels of Raf-1 and ERK1/2 by Western blot analysis. To study the effect of ECO-4601 on the Ras-MAPK signaling pathway, exponentially growing cells (human breast MCF-7 tumor cells, human breast MDA-MB-231 tumor cells, human glioma U 87-MG tumor cells and human prostate PC-3 tumor cells) were seeded onto 60 mm tissue culture dishes (0.5 to 0.8×10^6 cells per dish) for 24 h. The media was removed and cells were treated with 10 μM ECO-4601 in culture medium supplemented with 0.1% FBS for 30 min, 1 h, 4 h and 6 h, and subsequently exposed to EGF at 50 ng/mL for 10 min at 37° C. Control plates consisted of cells incubated in culture medium containing 0.1% FBS and 0.05% DMSO (vehicle) with or without EGF stimulation. At the end of each treatment, media was removed and cells rinsed with ice-cold PBS. Cells were then harvested by scraping and cell pellets were lysed in ice-cold RIPA buffer for 20 minutes on ice. Unsolubilized material was pelleted and discarded. The protein concentration of each lysate was quantified using the Bio-Rad protein assay (Bio-Rad Laboratories). Equivalent amounts of protein (20-30 μg protein) were separated on 10% or 12% SDS-PAGE under reducing conditions, transferred onto nitrocellulose membranes (0.2 μm; Bio-Rad Laboratories) and blotted as above with phospho-c-Raf (Ser338) and c-Raf (Cell Signaling Technology Inc., Boston, Mass.), phospho-p44/42 (Thr2O2/Tyr204, p-ERK1/2) and p44/42 (ERK1/2) MAP Kinases (Cell Signaling Technology Inc.) and GAPDH (SantaCruz Biotechnology Inc.).

[5] = individual rats, IV bolus 30 mg/kg then CIV 5 mg/kg/hour over 3 hours, listed as ECO-4601

For `CC(C)=CCC/C(C)=C/CC/C(C)=C/CN1C(=O)c2cccc(O)c2Nc2c(O)cc(O)cc21` [Compound 1, 10-farnesyl-4,6,8-trihydroxy-5,10-dihydrodibenzo[b,e][1,4]diazepin-11-one], the “tumor compared to liver” value ([1]; FIG. 7) was 7 fold, the “Brain Drug Level” value [1, 5] was 527 ng/g and 692 ng/g and 823 ng/g and 1265 ng/g and 941 ng/g and 503 ng/g and 596 ng/g and the “Liver Drug Level” value [1, 5] was 11.2 µg/g and 6.91 µg/g and 53.1 µg/g and 61.0 µg/g and 14.2 µg/g and 3.31 µg/g and 2.29 µg/g. The “Plasma Drug Level” value [1, 5] was 16000 ng/mL and 12000 ng/mL and 22000 ng/mL and 32000 ng/mL and 11500 ng/mL and 4200 ng/mL and 4100 ng/mL, the “Tumor Drug Level” value [1, 5] was 234 µg/g and 8.46 µg/g and 182 µg/g and 273 µg/g and 242 µg/g and 8.98 µg/g and 119 µg/g and the concentration at 3 h ([1]; rat, liver, intravenous, FIG. 7, read-out: liver level (mean)) was 24800 ng/g. For the same molecule, the concentration at 3 h ([1]; rat, plasma, intravenous, FIG. 7, read-out: plasma level (mean)) was 16200 ng/g, the Kp at 3 h ([1]; rat, tumor / plasma, intravenous, FIG. 7, read-out: tumor compared to plasma) was 11 and the concentration at 3 h ([1]; rat, tumor, intravenous, FIG. 7, read-out: accumulation in the tumor (mean level)) was 176000 ng/mL. For the same molecule, the IC50 [2] was 3.8 ± 1.4 µM, the “cytotoxic activity in NCI in vitro screening (in words)” value ([3]; 60 cell lines) was “low micromolar range” and the GI50 ([3]; Breast carcinoma cell, breast carcinoma cell lines, read-out: GI50 range) was 1.4 to 16.3 µM. For the same molecule, the GI50 ([3]; CNS (glioblastoma) cell lines, read-out: GI50 range) was 2 to 6.5 µM, the GI50 ([3]; Colon carcinoma cell, colon carcinoma cell lines, read-out: GI50 range) was 3 to 17.3 µM and the GI50 ([3]; Ovarian carcinoma cell, ovarian carcinoma cell lines, read-out: GI50 range) was 2.5 to 6.2 µM. For the same molecule, the GI50 ([3]; leukemia cell lines, read-out: GI50 range) was 0.9 to 5 µM, the GI50 ([3]; melanoma cell lines, read-out: GI50 range) was 1.8 to 8.1 µM and the GI50 ([3]; non-small cell lung carcinoma cell lines, read-out: GI50 range) was 1.9 to 10.8 µM. For the same molecule, the GI50 ([3]; prostate carcinoma cell lines, read-out: GI50) was 3.5 to 9.3 µM, the GI50 ([3]; renal carcinoma cell lines, read-out: GI50 range) was 2.9 to 14.5 µM and the “direct inhibition of EGFR kinase activity (in words)” value (human EGFR; 0.5 μM and 5 μM) was “does not directly inhibit”. For the same molecule, the activity at 0.5 µM (human EGFR; EGFR, 0.5 μM, % of enzyme activity over positive control, read-out: Kinase Activity (%) ± SD) was 128 ± 6%, the activity at 5 µM (human EGFR; EGFR, 5 μM, % of enzyme activity over positive control, read-out: Kinase Activity (%) ± SD) was 127 ± 9% and the “amount of total Raf-1” value [4] was “decrease”. The “time to complete inhibition of protein phosphorylation” value [4] was ≤ 6 h and the “inhibition of EGF-induced phosphorylation of Raf-1 and ERK1/2” value ([4]; MCF-7, MDA-MB-231, U 87-MG and PC-3 cells) was “strong inhibition”.

Reference: patent publication US20090062255A1, “TUMOR-TARGETING EVALUATION METHODOLOGY AND COMPOUNDS RELATED THERETO” (THALLION PHARMACEUTICALS INC., priority 2007, published 2009)
